{
  "source": "ChEMBL document CHEMBL3875161",
  "about": "“Thiazolidin-4-ones from 4-(methylthio)benzaldehyde and 4-(methylsulfonyl)benzaldehyde: Synthesis, antiglioma activity and cytotoxicity” (Eur J Med Chem, 2016)",
  "key": {"[1]": {"assay": "Cytotoxicity against Wistar rat C6 cells assessed as decrease in cell viability at 100 uM after 72 hrs by MTT assay relative to control", "assay_type": "functional"}, "[2]": {"species": "Rattus norvegicus", "assay": "Cytotoxicity against Wistar rat primary astrocytes assessed as inhibition of cell viability at 100 uM after 72 hrs by MTT assay", "assay_type": "toxicity", "conditions": "astrocyte"}, "[3]": {"species": "Rattus norvegicus", "assay": "Cytotoxicity against Wistar rat primary astrocytes assessed as inhibition of cell viability at 250 uM after 72 hrs by MTT assay", "assay_type": "toxicity", "conditions": "astrocyte"}, "[4]": {"test_system": "C6", "assay": "Induction of necrosis in Wistar rat C6 cells at 50 to 100 uM after 72 hrs by propidium iodide staining based fluorescence microscopic analysis", "assay_type": "functional, cell-based"}, "[5]": {"test_system": "C6", "assay": "Cytotoxicity against Wistar rat C6 cells assessed as inhibition of cell viability at 50 uM after 72 hrs by MTT assay", "assay_type": "functional, cell-based"}, "[6]": {"test_system": "C6", "assay": "Induction of necrosis in Wistar rat C6 cells assessed as lowering of cell density at 50 to 100 uM", "assay_type": "functional, cell-based"}, "[7]": {"test_system": "C6", "assay": "Cytotoxicity against Wistar rat C6 cells assessed as inhibition of cell viability at 50 uM after 48 hrs by MTT assay", "assay_type": "functional, cell-based"}, "[8]": {"test_system": "C6", "assay": "Induction of necrosis in Wistar rat C6 cells assessed as change in cell morphology at 50 to 100 uM", "assay_type": "functional, cell-based"}, "[9]": {"assay": "Cytotoxicity against Wistar rat C6 cells assessed as decrease in cell viability at 100 uM after 48 hrs by MTT assay relative to control", "assay_type": "functional"}, "[10]": {"test_system": "C6", "assay": "Cytotoxicity against Wistar rat C6 cells assessed as inhibition of cell viability at 25 uM after 48 hrs by MTT assay", "assay_type": "functional, cell-based"}, "[11]": {"test_system": "C6", "assay": "Cytotoxicity against Wistar rat C6 cells assessed as inhibition of cell viability at 25 uM after 72 hrs by MTT assay", "assay_type": "functional, cell-based"}, "[12]": {"test_system": "C6", "assay": "Cytotoxicity against Wistar rat C6 cells assessed as inhibition of cell viability at 5 uM after 72 hrs by MTT assay", "assay_type": "functional, cell-based"}},
  "note": "Activity calls are given as the source filed them. The calls are words filed in the database; no cut-off is given here.",
  "data": [
    {"smiles": "CCN(CC)CCCN1C(=O)CSC1c1ccc(SC)cc1", "note": "(stereo not drawn)", "values": [
      {"measurement": "Activity", "setting": "[1]", "value": 67.5, "unit": "%"},
      {"measurement": "Activity", "setting": "[2]", "value": "Non-Toxic"},
      {"measurement": "Activity", "setting": "[3]", "value": "Toxic"}
    ]},
    {"smiles": "CSc1ccc(C2SCC(=O)N2CCN2CCCCC2)cc1", "note": "(stereo not drawn)", "values": [
      {"measurement": "Activity", "setting": "[1]", "value": 61, "unit": "%"},
      {"measurement": "Activity", "setting": "[2]", "value": "Non-Toxic"},
      {"measurement": "Activity", "setting": "[3]", "value": "Toxic"}
    ]},
    {"smiles": "CSc1ccc(C2SCC(=O)N2c2ccccn2)cc1", "note": "(stereo not drawn)", "values": [
      {"measurement": "Activity", "setting": "[2]", "value": "Non-Toxic"},
      {"measurement": "Activity", "setting": "[3]", "value": "Non-Toxic"}
    ]},
    {"smiles": "CCN(CC)CCCN1C(=O)CSC1c1ccc(S(C)(=O)=O)cc1", "note": "(stereo not drawn)", "values": [
      {"measurement": "Activity", "setting": "[2]", "value": "Non-Toxic"},
      {"measurement": "Activity", "setting": "[3]", "value": "Toxic"}
    ]},
    {"smiles": "CSc1ccc(C2SCC(=O)N2c2ccc3c(c2)OCO3)cc1", "note": "(stereo not drawn)", "values": [
      {"measurement": "Activity", "setting": "[4]", "value": "Active"},
      {"measurement": "inhibition", "setting": "[5]", "value": "Active"},
      {"measurement": "Activity", "setting": "[1]", "value": 81.7, "unit": "%"},
      {"measurement": "Activity", "setting": "[2]", "value": "Non-Toxic"},
      {"measurement": "Activity", "setting": "[6]", "value": "Active"},
      {"measurement": "inhibition", "setting": "[7]", "value": "Active"},
      {"measurement": "Activity", "setting": "[8]", "value": "Active"},
      {"measurement": "Activity", "setting": "[9]", "value": 61.2, "unit": "%"},
      {"measurement": "Activity", "setting": "[3]", "value": "Non-Toxic"}
    ]},
    {"smiles": "CS(=O)(=O)c1ccc(C2SCC(=O)N2Cc2ccccn2)cc1", "note": "(stereo not drawn)", "values": [
      {"measurement": "Activity", "setting": "[4]", "value": "Active"},
      {"measurement": "inhibition", "setting": "[10]", "value": "Active"},
      {"measurement": "Activity", "setting": "[1]", "value": 77, "unit": "%"},
      {"measurement": "Activity", "setting": "[2]", "value": "Non-Toxic"},
      {"measurement": "Activity", "setting": "[6]", "value": "Active"},
      {"measurement": "Activity", "setting": "[8]", "value": "Active"},
      {"measurement": "Activity", "setting": "[9]", "value": 47.2, "unit": "%"},
      {"measurement": "inhibition", "setting": "[11]", "value": "Active"},
      {"measurement": "Activity", "setting": "[3]", "value": "Non-Toxic"}
    ]},
    {"smiles": "CSc1ccc(C2SCC(=O)N2Cc2ccccn2)cc1", "note": "(stereo not drawn)", "values": [
      {"measurement": "Activity", "setting": "[4]", "value": "Active"},
      {"measurement": "inhibition", "setting": "[12]", "value": "Active"},
      {"measurement": "Activity", "setting": "[1]", "value": 75, "unit": "%"},
      {"measurement": "Activity", "setting": "[2]", "value": "Non-Toxic"},
      {"measurement": "Activity", "setting": "[6]", "value": "Active"},
      {"measurement": "Activity", "setting": "[8]", "value": "Active"},
      {"measurement": "Activity", "setting": "[9]", "value": 48, "unit": "%"},
      {"measurement": "Activity", "setting": "[3]", "value": "Non-Toxic"}
    ]},
    {"smiles": "CS(=O)(=O)c1ccc(C2SCC(=O)N2CCCN2CCCCC2)cc1", "note": "(stereo not drawn)", "values": [
      {"measurement": "Activity", "setting": "[2]", "value": "Non-Toxic"},
      {"measurement": "Activity", "setting": "[3]", "value": "Non-Toxic"}
    ]},
    {"smiles": "CS(=O)(=O)c1ccc(C2SCC(=O)N2c2ccc3c(c2)OCO3)cc1", "note": "(stereo not drawn)", "values": [
      {"measurement": "Activity", "setting": "[2]", "value": "Non-Toxic"},
      {"measurement": "Activity", "setting": "[3]", "value": "Non-Toxic"}
    ]},
    {"smiles": "CSc1ccc(C2SCC(=O)N2c2ccc(SC)cc2)cc1", "note": "(stereo not drawn)", "values": [
      {"measurement": "Activity", "setting": "[2]", "value": "Non-Toxic"},
      {"measurement": "Activity", "setting": "[3]", "value": "Non-Toxic"}
    ]},
    {"smiles": "CS(=O)(=O)c1ccc(C2SCC(=O)N2CCN2CCCCC2)cc1", "note": "(stereo not drawn)", "values": [
      {"measurement": "Activity", "setting": "[2]", "value": "Non-Toxic"},
      {"measurement": "Activity", "setting": "[3]", "value": "Non-Toxic"}
    ]},
    {"smiles": "CSc1ccc(C2SCC(=O)N2CCCN2CCCCC2)cc1", "note": "(stereo not drawn)", "values": [
      {"measurement": "Activity", "setting": "[4]", "value": "Active"},
      {"measurement": "inhibition", "setting": "[12]", "value": "Active"},
      {"measurement": "Activity", "setting": "[1]", "value": 78, "unit": "%"},
      {"measurement": "Activity", "setting": "[2]", "value": "Non-Toxic"},
      {"measurement": "Activity", "setting": "[6]", "value": "Active"},
      {"measurement": "Activity", "setting": "[8]", "value": "Active"},
      {"measurement": "Activity", "setting": "[9]", "value": 52.2, "unit": "%"},
      {"measurement": "Activity", "setting": "[3]", "value": "Toxic"}
    ]},
    {"smiles": "CS(=O)(=O)c1ccc(C2SCC(=O)N2c2ccccn2)cc1", "note": "(stereo not drawn)", "values": [
      {"measurement": "Activity", "setting": "[2]", "value": "Non-Toxic"},
      {"measurement": "Activity", "setting": "[3]", "value": "Non-Toxic"}
    ]},
    {"smiles": "Cn1nnc2c(C(N)=O)ncn2c1=O", "note": "[TEMOZOLOMIDE]", "values": [
      {"measurement": "Activity", "setting": "[1]", "value": 39.7, "unit": "%"},
      {"measurement": "Activity", "setting": "[9]", "value": 42.3, "unit": "%"}
    ]},
    {"smiles": "CSc1ccc(N2C(=O)CSC2c2ccc(S(C)(=O)=O)cc2)cc1", "note": "(stereo not drawn)", "values": [
      {"measurement": "Activity", "setting": "[2]", "value": "Non-Toxic"},
      {"measurement": "Activity", "setting": "[3]", "value": "Non-Toxic"}
    ]}
  ]
}
